# Experimental data published in patent US8029770B2 (Rutgers, The State University, priority 2003, dated 2011).
# Entries after “also recorded” stand apart in the source; their conditions may differ. Read-outs that look alike come from different tables or passages of the source. Marks after values point to notes of the source that are not given here.
# Tests used:
# [1] = Weight of mouse during topical treatment of UVB-pretreated high risk SKH-1 mice; assay type: in vivo
# Description: Female SKH-1 mice were treated with 30 mJ/cm^2 of UVB twice a week for 20 weeks.
# [2] = test system: apoptotic sunburn cells in the epidermis of SKH-1 mice; assay: UVB-induced apoptotic sunburn cells in the epidermis of SKH-1 mice after topical application; assay type: in vivo, mouse; conditions: for Percent Apoptotic Sunburn Cells, Non-UVB Treated: no UVB
# Description: Chemicals and Animals. […] Female SKH-1 hairless mice (6 to 7 weeks old) were purchased from the Charles River Breeding Laboratories, and the animals were kept in an animal facility for at least one week before use at 7 to 8 weeks of age. Mice were given water and PURINA® Laboratory CHOW® 5001 diet from Ralston-Purina (St. […] For the analysis conducted herein, 5 mice were used per group. Treatment of Mice with UVB. […] The radiation was further calibrated with a model IL-1700 research radiometer/photometer (International Light, Newburyport, Mass.). Measurement of apoptotic sunburn cells. Identification of apoptoic sunburn cells was based morphologically on cell shrinkage and nuclear condensation due to fragmentation of the cells. […] Six hours after UVB, the animals were sacrificed and apoptotic sunburn cells in the epidermis were determined morphologically. […] Six hours after UVB, the animals were sacrificed and apoptotic sunburn cells in the epidermis were determined morphologically. […] Acetone Formulation. […] Six hours after UVB, the animals were sacrificed and apoptotic sunburn cells in the epidermis were determined morphologically. […] […] Formulations. […] Six hours after UVB the animals were sacrificed and apoptotic sunburn cells in the epidermis were determined morphologically. […] Six hours after UVB the animals were sacrificed and apoptotic sunburn cells in the epidermis were determined morphologically.
# cyclin B1 = assay: Epidermal cyclin B1 in UVB-treated mice, western blot and immunohistochemistry; assay type: in vivo, mouse
# [3] = test system: UVB-induced skin tumors in tumor-bearing SKH-1 mice; assay: Growth of UVB-induced skin tumors in tumor-bearing SKH-1 mice; assay type: in vivo, mouse
# Description: Female SKH-1 mice (7 to 8 weeks old) were treated with 30 mJ/cm^2 of UVB twice a week for 20 weeks. The UVB was stopped for 24 weeks. These tumor-bearing animals were divided into 2 groups (19 mice per group). […] The number (FIG. 1A) and size (FIG. 1B) of the tumors were recorded every 2 weeks.
# The radius (r) was determined, and the volume was calculated by: volume=4πr^3/3.
# Female SKH-1 mice were treated with 30 mJ/cm^2 of UVB twice a week for 20 weeks and UVB were stopped for 24 weeks. The resulting tumor-bearing animals were divided into 2 groups (19 mice per group). […] The number and size of the tumors were recorded every 2 weeks.
# phospho-Chk2 (Ser387) = assay: Epidermal phospho-Chk2 (Ser387) in UVB-treated mice, western blot; assay type: in vivo, mouse; conditions: topical immediately after UVB 30 mJ/cm2; 6 hours
# [4] = test system: UVB-induced skin tumors in high risk SKH-1 mice
# [5] = test system: UVB-induced skin lesions in SKH-1 mice; assay: Prevention of UVB-induced skin (sunburn) lesions, sunscreen effect; assay type: in vivo, mouse; conditions: 4.8% caffeine or 8.0% caffeine sodium benzoate (24 μmoles) in 100 mg DERMABASE 30 minutes before UVB 180 mJ/cm^2 on two consecutive days (FIG. 2)
# Description: The areas (mm^2) and the intensity of red color in UVB-induced skin lesion were estimated semi-quantitatively 5 days after first UVB treatment. The lesion index were calculated as the lesion area multiplied by the arbitrary intensity: 0, no lesion; 1 barely detectable red lesion; 2 moderate red lesion, and 3, bright red lesion.
# Outdoor occupational human exposure to UVB or a sunbathing exposure in the summer has been reported to range from 50-100 mJ/cm^2 per day (Larko, et al. (1983) Clin. Exp. Dermatol. 8:279-285; Diffey (1991) Phys. Med. Biol. 36:299-328).
# [6] = 4% in 100 mg DERMABASE once a day 5 days a week, 8 weeks (FIG. 1)
smiles,measurement,setting,value
"Cn1c(=O)c2c(ncn2C)n(C)c1=O.O=C([O-])c1ccccc1.[Na+] [Caffeine Sodium Benzoate, caffeine sodium benzoate]",Weight of mouse,"[1]; week 0, 2% CSB in DERMABASE",30.5 ± 0.5 g
same,Weight of mouse,"[1]; week 0, 6% CSB in DERMABASE",30.4 ± 0.6 g
same,Weight of mouse,"[1]; week 5, 2% CSB in DERMABASE",30.3 ± 0.4 g
same,Weight of mouse,"[1]; week 5, 6% CSB in DERMABASE",29.9 ± 0.5 g
same,Weight of mouse,"[1]; week 7, 2% CSB in DERMABASE",30.6 ± 0.4 g
same,Weight of mouse,"[1]; week 7, 6% CSB in DERMABASE",29.8 ± 0.5 g
same,Weight of mouse,"[1]; week 9, 2% CSB in DERMABASE",30.6 ± 0.4 g
same,Weight of mouse,"[1]; week 9, 6% CSB in DERMABASE",30.0 ± 0.5 g
same,Weight of mouse,"[1]; week 11, 2% CSB in DERMABASE",30.7 ± 0.5 g
same,Weight of mouse,"[1]; week 11, 6% CSB in DERMABASE",30.2 ± 0.5 g
same,"Percent Sunburn Cells, UVB","[2]; 6.2 μmole (each) in 100 μL acetone:water (9:1) immediately after UVB 30 mJ/cm^2 and at 30 and 120 min, 6 h, mean ± S.E.",1.10 ± 0.10%
same,Percent Apoptotic Sunburn Cells,"[2]; 6.2 μmole in 100 μL acetone right after UVB 30 mJ/cm^2 and at 30 and 120 min, 6 h after UVB, mean ± S.E.",1.089 ± 0.080^a %
same,"Percent Sunburn Cells, UVB","[2]; 100 mg formulation (2.4% caffeine or 4.0% caffeine sodium benzoate, 12.4 μmole, in DERMABASE; or commercial product) immediately after UVB 30 mJ/cm^2, 6 h",2.33 ± 0.36^a %
same,"Percent Sunburn Cells, UVB","[2]; 1.0% CSB in 100 mg DERMABASE immediately after UVB 30 mJ/cm^2, 6 h",0.74 ± 0.20^a %
same,"Percent Sunburn Cells, UVB","[2]; 2.0% CSB in 100 mg DERMABASE immediately after UVB 30 mJ/cm^2, 6 h",0.99 ± 0.20^a %
same,"Percent Sunburn Cells, UVB","[2]; 4.0% CSB in 100 mg DERMABASE immediately after UVB 30 mJ/cm^2, 6 h",1.22 ± 0.19^a %
same,"Percent Sunburn Cells, UVB","[2]; 6.0% CSB in 100 mg DERMABASE immediately after UVB 30 mJ/cm^2, 6 h",1.67 ± 0.31^a %
same,"Percent Sunburn Cells, UVB","[2]; 8.0% CSB in 100 mg DERMABASE immediately after UVB 30 mJ/cm^2, 6 h",1.75 ± 0.32^a %
same,"enhancement of UVB-induced apoptosis in the epidermis, applied in DERMABASE","[2]; DERMABASE vehicle, equimolar amounts (Table 4)",to a greater extent than equimolar amounts of caffeine
same,Percent Apoptotic Sunburn Cells,"[2]; Exp-1, 6.2 μmole in acetone:water (9:1) x3 after UVB 30 mJ/cm^2, 6 h",1.09 ± 0.08%
same,Percent Apoptotic Sunburn Cells,"[2]; Exp-2, 3.1 μmole in acetone:water (9:1) x3 after UVB 30 mJ/cm^2, 6 h",0.45 ± 0.07%
same,"Percent Apoptotic Sunburn Cells, Non-UVB Treated","[2]; Exp-2, 3.1 μmole",0.02 ± 0.01%
same,Percent Apoptotic Sunburn Cells,"[2]; Exp-2, 6.2 μmole in acetone:water (9:1) x3 after UVB 30 mJ/cm^2, 6 h",0.68 ± 0.06%
same,"Percent Apoptotic Sunburn Cells, Non-UVB Treated","[2]; Exp-2, 6.2 μmole",0.03 ± 0.01%
same,% Induction,"[2]; Table 1, vs acetone group, 6.2 μmole x3 after UVB 30 mJ/cm^2, 6 h",434%
same,% Induction,"[2]; Table 3 Exp-1, 6.2 μmole",445%
same,% Induction,"[2]; Table 3 Exp-2, 3.1 μmole",114%
same,% Induction,"[2]; Table 3 Exp-2, 6.2 μmole",224%
same,% Induction,"[2]; Table 4, 1.0% CSB in DERMABASE",270%
same,% Induction,"[2]; Table 4, 2.0% CSB in DERMABASE",395%
same,% Induction,"[2]; Table 4, 4.0% CSB in DERMABASE",510%
same,% Induction,"[2]; Table 4, 6.0% CSB in DERMABASE",735%
same,% Induction,"[2]; Table 4, 8.0% CSB in DERMABASE",775%
same,effect on non-UVB-treated cells,[2]; no UVB (Table 3),unaffected
same,percent of cyclin B1 positive cells in the epidermis,"cyclin B1; UVB-treated mice, frozen sections, immunohistochemical",substantially enhanced
same,effect on cyclin B1 positive cells in the absence of UVB,cyclin B1; no UVB,little or no effect
same,level of epidermal cyclin B1 vs UVB alone,"cyclin B1; topical immediately after UVB 30 mJ/cm2, western blot",increased substantially
same,reduction in the number of tumors that developed per mouse vs DERMABASE,[3]; [6],2 fold
same,reduction in tumor volume per mouse vs DERMABASE,[3]; [6],~3 fold
same,number and size of tumors,"[3]; 4% in 100 mg DERMABASE, 8 weeks (FIG. 1A, 1B)",significantly reduced
same,UVB-induced increase in the level of phospho-Chk2 (Ser387),phospho-Chk2 (Ser387),inhibited
same,No. of large tumors (diameter > 5 mm),"[4]; week 0, 2% CSB in DERMABASE",0
same,Tumor volume per mouse (all mice) (mm^3),"[4]; week 0, 2% CSB in DERMABASE",0 mm^3
same,Tumor volume per tumor (mm^3),"[4]; week 0, 2% CSB in DERMABASE",0 mm^3
same,Tumors per mouse,"[4]; week 0, 2% CSB in DERMABASE",0
same,No. of large tumors (diameter > 5 mm),"[4]; week 0, 6% CSB in DERMABASE",0
same,Tumor volume per mouse (all mice) (mm^3),"[4]; week 0, 6% CSB in DERMABASE",0 mm^3
same,Tumor volume per tumor (mm^3),"[4]; week 0, 6% CSB in DERMABASE",0 mm^3
same,Tumors per mouse,"[4]; week 0, 6% CSB in DERMABASE",0
same,No. of large tumors (diameter > 5 mm),"[4]; week 5, 2% CSB in DERMABASE",0
same,Tumor volume per mouse (all mice) (mm^3),"[4]; week 5, 2% CSB in DERMABASE",0.1 ± 0.1 mm^3
same,Tumor volume per tumor (mm^3),"[4]; week 5, 2% CSB in DERMABASE",0.5 ± 0.0 mm^3
same,Tumors per mouse,"[4]; week 5, 2% CSB in DERMABASE",0.2 ± 0.1
same,No. of large tumors (diameter > 5 mm),"[4]; week 5, 6% CSB in DERMABASE",0
same,Tumor volume per mouse (all mice) (mm^3),"[4]; week 5, 6% CSB in DERMABASE",0.0 ± 0.0 mm^3
same,Tumor volume per tumor (mm^3),"[4]; week 5, 6% CSB in DERMABASE",0.5 ± 0.0 mm^3
same,Tumors per mouse,"[4]; week 5, 6% CSB in DERMABASE",0.0 ± 0.0
same,No. of large tumors (diameter > 5 mm),"[4]; week 7, 2% CSB in DERMABASE",0
same,Tumor volume per mouse (all mice) (mm^3),"[4]; week 7, 2% CSB in DERMABASE",0.6 ± 0.4 mm^3
same,Tumor volume per tumor (mm^3),"[4]; week 7, 2% CSB in DERMABASE",1.5 ± 0.5 mm^3
same,Tumors per mouse,"[4]; week 7, 2% CSB in DERMABASE",0.4 ± 0.2
same,No. of large tumors (diameter > 5 mm),"[4]; week 7, 6% CSB in DERMABASE",0
same,Tumor volume per mouse (all mice) (mm^3),"[4]; week 7, 6% CSB in DERMABASE",0.1 ± 0.1 mm^3
same,Tumor volume per tumor (mm^3),"[4]; week 7, 6% CSB in DERMABASE",0.5 ± 0.0 mm^3
same,Tumors per mouse,"[4]; week 7, 6% CSB in DERMABASE",0.2 ± 0.1
same,No. of large tumors (diameter > 5 mm),"[4]; week 9, 2% CSB in DERMABASE",0
same,Tumor volume per mouse (all mice) (mm^3),"[4]; week 9, 2% CSB in DERMABASE",1.0 ± 0.5 mm^3
same,Tumor volume per tumor (mm^3),"[4]; week 9, 2% CSB in DERMABASE",1.9 ± 0.9 mm^3
same,Tumors per mouse,"[4]; week 9, 2% CSB in DERMABASE",0.5 ± 0.2
same,No. of large tumors (diameter > 5 mm),"[4]; week 9, 6% CSB in DERMABASE",0
same,Tumor volume per mouse (all mice) (mm^3),"[4]; week 9, 6% CSB in DERMABASE",0.3 ± 0.2 mm^3
same,Tumor volume per tumor (mm^3),"[4]; week 9, 6% CSB in DERMABASE",0.9 ± 0.4 mm^3
same,Tumors per mouse,"[4]; week 9, 6% CSB in DERMABASE",0.3 ± 0.1
same,No. of large tumors (diameter > 5 mm),"[4]; week 11, 2% CSB in DERMABASE",0
same,Tumor volume per mouse (all mice) (mm^3),"[4]; week 11, 2% CSB in DERMABASE",1.8 ± 0.2 mm^3
same,Tumor volume per tumor (mm^3),"[4]; week 11, 2% CSB in DERMABASE",2.1 ± 0.6 mm^3
same,Tumors per mouse,"[4]; week 11, 2% CSB in DERMABASE",0.9 ± 0.3
same,No. of large tumors (diameter > 5 mm),"[4]; week 11, 6% CSB in DERMABASE",0
same,Tumor volume per mouse (all mice) (mm^3),"[4]; week 11, 6% CSB in DERMABASE",1.0 ± 0.4 mm^3
same,Tumor volume per tumor (mm^3),"[4]; week 11, 6% CSB in DERMABASE",2.0 ± 0.5 mm^3
same,Tumors per mouse,"[4]; week 11, 6% CSB in DERMABASE",0.5 ± 0.2
same,formation of UVB-induced sunburn (skin) lesions,[5],significantly prevented skin lesion formation; also recorded: inhibited the formation of sunburn lesions; also recorded: even more dramatic inhibitory effect
